Measurements: patent EP1721601A1, “Use of taurine for enhancing lipid synthesis in the epidermis” (Henkel Kommanditgesellschaft auf Aktien, priority 2005, dated 2006)
Entries after “also recorded” stand apart in the source; their conditions may differ.

Tests used:
[1] = system: epidermale Barrierefunktion; experiment: Epidermal barrier function (TEWL) after repetitive SDS damage in vivo
Description: Anschließend wurden Öl-in-Wasser-Emulsionen mit 1,5 Gew.-% Behenylalkohol und 2,75 Gew.-% Arachidylalkohol (VAR1: 0 Gew.-% Taurin; VAR2: 1 Gew.-% Taurin) appliziert, oder die Haut verblieb unbehandelt (VAR3). Diese Behandlung wurde zweimal täglich an 5 Tagen durchgeführt. Der transepidermale Wasserverlust (TEWL) wurde jeweils vor der SDS-Schädigung mit einem […] (Courage & Khazaka, Köln, Germany) bestimmt. Die Daten wurden auf die t0-Werte normiert und ein dimensionsloser Wert "area under the curve" errechnet (siehe Tabelle 1). Die statistische Analyse der Daten basiert auf dem gepaarten Wilcoxon-Test. Die Daten repräsentieren die Mittelwerte (n=18). Tab. 2: Einfluss von Taurin auf Irritationsmarker in vitro

Epidermismodelle [2] = experiment: Irritation markers in vitro: viability and LDH release of SDS-damaged epidermis models; format: cell-based; conditions: for LDH-Freisetzung / Vitalität: 1 h 0,18% SDS, rinsed, then 24 h topical emulsion (C: 0.1 Gew.-% Triamcinolonacetonid; E: 1 Gew.-% Taurin; B: no further treatment), mean +/- SEM, n=3; for LDH-Freisetzung: unbehandelt 0,22, Vehikel 1,95; for Vitalität: unbehandelt 100, Vehikel 66
Description: (§1) Anschließend wurden die Epidermismodelle abgespült und für weitere 24h unter topischer Applikation folgender Emulsionen inkubiert: C: Kortikoid-ratiopharm® Creme (0.1 Gew.-% Triamcinolonacetonid); D: 1,5 Gew.-% Behenylalkohol + 2,75 Gew.-% Arachidylalkohol; E: 1,5 Gew.-% Behenylalkohol + 2,75 Gew.-% Arachidylalkohol +1 Gew.-% Taurin. […] Die Daten repräsentieren die Mittelwerte +/-SEM (n=3).

Prostaglandin E2 (PGE2) = experiment: Irritation markers in vitro: PGE2 release of SDS-damaged epidermis models; format: cell-based; conditions: for PGE2-Freisetzung: 1 h 0,18% SDS, rinsed, then 24 h topical emulsion (C: 0.1 Gew.-% Triamcinolonacetonid; E: 1 Gew.-% Taurin; B: no further treatment), mean +/- SEM, n=3, unbehandelt 0,84, Vehikel 1,40
Description: as §1

[3] = system: Interleukin 1-alpha (IL-1alpha); experiment: Irritation markers in vitro: IL-1alpha release of SDS-damaged epidermis models; format: cell-based; conditions: for IL-1alpha-Freisetzung: 1 h 0,18% SDS, rinsed, then 24 h topical emulsion (C: 0.1 Gew.-% Triamcinolonacetonid; E: 1 Gew.-% Taurin; B: no further treatment), mean +/- SEM, n=3, unbehandelt 15, Vehikel 387
Description: as §1

Epidermismodelle [4] = experiment: Epidermal synthesis of barrier lipids in epidermis models; format: cell-based
Description: Epidermismodelle wurden 12 Tage lang kultiviert. Nach 12 Tagen (t = 0) wurden die individuell entwickelten sogenannten Barrierelipide (Ceramide, Cholesterol, Fettsäuren, Cholesterolsulfate und Cholesterolester) quantifiziert. Anschließend wurde ein Teil der Epidermismodelle 5 Tage lang ohne Zusatz von Taurin weiterkultiviert. Ein anderer Teil der Epidermismodelle wurde 5 Tage lang […] Zusatz von 0,3 mM Taurin weiterkultiviert. Nach insgesamt 17 Tagen Kultivierungsdauer (t = 5) wurden erneut die Barrierelipide quantifiziert. […] Die in Tab. 3 gezeigten Unterschiede zu t = 5 waren statistisch signifikant (p<0,05). Tabelle 3: Einfluss von Taurin auf die epidermale Synthese von Barrierelipiden (Angaben der Menge an Barrierelipiden in Gew.-%, bezogen auf den Gesamtlipidgehalt der Epidermismodelle, Mittelwerte aus n = 4 Messungen (± Standardabweichung))

[5] = incubation of skin models with Taurin, result in words

SMILES | TEWL "area under the curve", Mittelwert in % (Unbehandelt = 100 %) ([1]; O/W emulsion with 1 Gew.-% Taurin after occlusive 0.75% SDS, twice daily on 5 days, n=18, Vehikel 62,5 %) | transepidermaler Wasserverlust (TEWL), "area under the curve", Mittelwert ([1]; O/W emulsion with 1 Gew.-% Taurin after occlusive 0.75% SDS, twice daily on 5 days, normalised to t0, n=18) | Regeneration der Hautbarrierefunktion nach SDS-Schädigung ([1]; application of Taurin, result in words) | transepidermaler Wasserverlust (TEWL) ([1]; topical application of Taurin after repeated SDS treatment of the skin, result in words) | LDH-Freisetzung (Epidermismodelle [2]) | Vitalität (Epidermismodelle [2]) | Integrität der Keratinozytenmembran (Epidermismodelle [2]; [5]) | Vitalität der Keratinozyten (Epidermismodelle [2]; [5]) | PGE2-Freisetzung (Prostaglandin E2 (PGE2)) | Ausschüttung von Prostaglandin-E2 (Prostaglandin E2 (PGE2); [5]) | IL-1alpha-Freisetzung [3] | Ausschüttung von Interleukin-1-alpha [3, 5] | Cholesterolsulfat (Epidermismodelle [4]; 0,3 mM Taurin for 5 days (t = 5, 17 days culture), % of total lipid content, mean of n = 4 (± SD), without Taurin 0,6) | Cholesterol-ester (Epidermismodelle [4]; 0,3 mM Taurin for 5 days (t = 5, 17 days culture), % of total lipid content, mean of n = 4 (± SD), without Taurin 0,9) | Fettsäuren (Epidermismodelle [4]; 0,3 mM Taurin for 5 days (t = 5, 17 days culture), % of total lipid content, mean of n = 4 (± SD), without Taurin 3,5) | Ceramide (Epidermismodelle [4]; 0,3 mM Taurin for 5 days (t = 5, 17 days culture), % of total lipid content, mean of n = 4 (± SD), without Taurin 7,1) | Cholesterol (Epidermismodelle [4]; 0,3 mM Taurin for 5 days (t = 5, 17 days culture), % of total lipid content, mean of n = 4 (± SD), without Taurin 9,9) | Spiegel an Ceramiden, Cholesterol und freien Fettsäuren (Epidermismodelle [4]; skin models with Taurin, result in words) | epidermale Synthese von Barrierelipiden (Epidermismodelle [4]; skin/epidermis models with Taurin, result in words, differences at t = 5 significant (p<0,05))
NCCS(=O)(=O)O [Taurin, 2-Aminoethansulfonsäure] | 30,3% | 881932 arbitrary units | signifikant beschleunigt | senkte den TEWL in signifikantem Ausmaß | 1,30 +/- 0,15 OD 492nm | 82 +/- 2% | stabilisierte sich | verbesserte sich | 0,83 +/- 0,05 ng/ml | nahm die Ausschüttung von Interleukin-1-alpha und von Prostaglandin-E2 ab | 288 ± 37 pg/mL | nahm die Ausschüttung von Interleukin-1-alpha und von Prostaglandin-E2 ab | 1,0 (± 0,2) Gew.-% | 1,6 (± 0,2) Gew.-% | 5,7 (± 1,5) Gew.-% | 11.7 (± 1,6) Gew.-% | 11,0 (± 1,2) Gew.-% | in gleichem Ausmaß | in signifikantem Ausmaß die Synthese aller drei Klassen von Barrierelipiden; also recorded: Steigerung der epidermalen Synthese von Barrierelipiden
CC1(C)O[C@@H]2C[C@H]3[C@@H]4CCC5=CC(=O)C=C[C@]5(C)[C@@]4(F)[C@@H](O)C[C@]3(C)[C@]2(C(=O)CO)O1 [Triamcinolonacetonid, reference compound] | – | – | – | – | 1,19 +/- 0,16 OD 492nm | 86 +/- 8% | – | – | 0,30 +/- 0,05 ng/ml | – | 292 ± 26 pg/mL | – | – | – | – | – | – | – | –
